From paper PMC9585939, “Unveiling a family of spiro-β-lactams with anti-HIV and antiplasmodial activity via phosphine-catalyzed [3+2] annulation of 6-alkylidene-penicillanates and allenoates” (Frontiers in Chemistry, 2022) come the findings set out here.

One may read the melting point as the temperature, or range, at which the solid turns liquid. The IC50 is the concentration that inhibits the measured activity by half. The term IC90 denotes the point of the concentration-response curve where the effect stands at 90%. The CC50 is the concentration giving 50% cytotoxicity. Low readings indicate greater toxicity to the cells, high ones lower toxicity to the cells.

One data set deals with HIV-1 SG3.1. Put plainly: microbe, parasite or virus in culture. The note with it: for Therapeutic index (CC50/IC50): HIV-1, CC50 in TZM-bl cells; for IC50 / IC90 / inhibition at 25 µg/mL: Human immunodeficiency virus 1, TZM-bl; for IC50 / IC90: 48 h; for IC50: read-out: IC50 HIV-1, TZM-bl cells, 48 h; for IC90: read-out: IC90 HIV-1; for inhibition at 25 µg/mL: read-out: MPI (%) 25 μg/mL. The text has this:
The HIV-1 SG3.1 is a reference subtype B strain that uses the CXCR4 coreceptor. It was obtained by transfection of HEK293T cells with pSG3.1 plasmid using jetPRIME transfection reagent (Polyplus-transfection SA, Illkirch, France), according to the instructions of the manufacturer.
Briefly, TZM-bl cells were infected with 200 TCID50 of HIV-1 or HIV-2 in the presence of serial-fold dilutions of the compounds in the growth medium, supplemented with diethylaminoethyl-dextran (DEAE-dextran). After 48 h of infection, luciferase expression was quantified with Pierce Firefly Luc One-Step Glow Assay Kit (ThermoFisher Scientific, Rockford, United States), according to the instructions of the manufacturer. For each compound dilution, the assay was set up in triplicate wells. Virus controls, cell controls, and inhibitors controls (drugs with a known action against each virus) were employed.

Data set [1] in a line: Cellular viability assay (alamarBlue) in TZM-bl cells. It counts as cell-based. As to conditions: human, 50% cytotoxic concentration. Here is the method:
Before the antiviral activity screening, all spirocyclopentene-β-lactams were assayed for their in vitro cytotoxic activity (CC50) in TZM-bl cells (Table 4).
TZM-bl cells (AIDS Research and Reference Reagent Program, National Institutes of Health, United States) were cultured in complete growth medium consisting of Dulbecco’s Minimal Essential Medium (DMEM) supplemented with 10% fetal bovine serum (FBS), 100 U/ml of penicillin–streptomycin (Gibco/Invitrogen, United States), 1 mM of sodium pyruvate (Gibco/Invitrogen, United States), 2 mM of L-glutamine (Gibco/Invitrogen, United States), and 1 mM of non-essential amino acids (Gibco/Invitrogen, United States). Cell cultures were maintained at 37°C in 5% CO2.
The in vitro cytotoxicity of test compounds was evaluated in TZM-bl cells using alamarBlue cell viability reagent (Life Technologies, United States), according to the instructions of the manufacturer. The cells were cultured in the presence and absence of serial-fold dilutions of the test compounds. Each dilution of each compound was performed in triplicate wells. Medium controls (only growth medium), cell controls (cells without test compound), and cytotoxicity controls (a compound that kills cells) were employed in each assay.
A general note: Alamar Blue is a resazurin reagent that responds to reducing activity.

In turn, `CC1(C)SC2N(C(=O)C23CC=C(C(=O)OCc2ccccc2)C3C(=O)c2ccc([N+](=O)[O-])cc2)C1C(=O)OC(c1ccccc1)c1ccccc1` (stereo not drawn) [Compound 12d, (1’R,2’R)-Benzhydryl spiro[(2-(4-nitrobenzoyl)-3-benzyloxycarbonylcyclopent-3-ene)-1’,6-penicillanate]] returned a melting point of 122 to 123.7 °C. In the data set on HIV-1 SG3.1, the “Therapeutic index (CC50/IC50)” value was found to be 297.75, the half-maximal inhibitory concentration (IC50) was 0.178 µM, the IC90 was found to be 0.413 µM and the inhibition at 25 µg/mL was 80%. The 50% cytotoxic concentration (CC50) in data set [1] was determined as 53 µM.

Take `CC1(C)SC2N(C(=O)C23CC=C(C(=O)OCc2ccccc2)C3C(=O)c2ccc(C(F)(F)F)cc2)C1C(=O)OC(c1ccccc1)c1ccccc1` (stereo not drawn) [Compound 12e, (1’R,2’R)-Benzhydryl spiro[(2-(4-trifluoromethylbenzoyl)-3-benzyloxycarbonylcyclopent-3-ene)-1’,6-penicillanate]]: the melting point was in the range of 134.1 to 135.5 °C. Further, in the data set with HIV-1 SG3.1, the “Therapeutic index (CC50/IC50)” value was 49.39, the IC50 came out at 1.3 µM, the IC90 stood at 1.5 µM and the inhibition at 25 µg/mL came to 76%. For the same compound, in data set [1], the 50% cytotoxic concentration (CC50) was 64.4 µM.

With `CC1(C)SC2N(C(=O)C23CC=C(C(=O)OCc2ccccc2)C3C(=O)c2cc(F)cc(F)c2)C1C(=O)OC(c1ccccc1)c1ccccc1` (stereo not drawn) [Compound 12f, (1’R,2’R)-Benzhydryl spiro[(2-(3,5-difluorobenzoyl)-3-benzyloxycarbonylcyclopent-3-ene)-1’,6-penicillanate]], the melting point fell in the range of 69.5 to 71.5 °C. In addition, in the data set with HIV-1 SG3.1, the “Therapeutic index (CC50/IC50)” value was 531.34, the IC50 is 0.132 µM, the IC90 came out at 0.585 µM and the inhibition at 25 µg/mL came out at 88%. For the same compound, the midpoint of cytotoxicity in data set [1], the CC50, lay at 70.1 µM.

With `CC1(C)SC2N(C(=O)C23CC=C(C(=O)OCc2ccccc2)C3C(=O)c2ccc3ccccc3c2)C1C(=O)OC(c1ccccc1)c1ccccc1` (stereo not drawn) [Compound 12h, (1’R,2’R)-Benzhydryl spiro[(2-naphthoyl-3-benzyloxycarbonylcyclopent-3-ene)-1’,6-penicillanate]], the melting point fell in the range of 81.5 to 83.5 °C. Moreover, the inhibition at 25 µg/mL with HIV-1 SG3.1 is 0%. Besides, in data set [1], the CC50 was 73.6 µM.

Compound `CC1(C)SC2N(C(=O)C23CC=C(C(=O)OCc2ccccc2)C3C(=O)c2ccco2)C1C(=O)OC(c1ccccc1)c1ccccc1` (stereo not drawn) [Compound 12i, (1’R,2’R)-Benzhydryl spiro[(2-furoyl-3-benzyloxycarbonylcyclopent-3-ene)-1’,6-penicillanate]] displayed a melting point of 76.5 to 78.5 °C. For the same compound, in the data set on HIV-1 SG3.1, the “Therapeutic index (CC50/IC50)” value stood at 559.29, the IC50 came out at 0.14 µM, the IC90 was determined as 0.223 µM and the inhibition at 25 µg/mL is 87%. Also, the CC50 in data set [1] is 78.3 µM.

As to `CC1(C)SC2N(C(=O)C23C(C(=O)OCc2ccccc2)=CCC3C(=O)c2ccc(F)cc2)C1C(=O)OC(c1ccccc1)c1ccccc1` (stereo not drawn) [Compound 13a, (1′R,2′R)-benzhydryl spiro[(2-(4-fluorobenzoyl)-5-benzyloxycarbonylcyclopent-4-ene)-1′,6-penicillanate]], the melting point lay within 73.9 to 75.9 °C. Further, the inhibition at 25 µg/mL with HIV-1 SG3.1 turned out to be 0%. Moreover, in data set [1], the CC50 was 64.8 µM.

Turning to `CC1(C)SC2N(C(=O)C23C(C(=O)OCc2ccccc2)=CCC3C(=O)c2ccc(Cl)cc2)C1C(=O)OC(c1ccccc1)c1ccccc1` (stereo not drawn) [Compound 13b, (1’R,2’R)-Benzhydryl spiro[(2-(4-chlorobenzoyl)-5-benzyloxycarbonylcyclopent-4-ene)-1’,6-penicillanate]], the melting point was 116.3 to 118.3 °C. In addition, the inhibition at 25 µg/mL with HIV-1 SG3.1 is 0%. For the same compound, in data set [1], the half-maximal cytotoxic concentration (CC50) worked out at 63.7 µM.

In turn, `CC1(C)SC2N(C(=O)C23C(C(=O)OCc2ccccc2)=CCC3C(=O)c2ccc(Br)cc2)C1C(=O)OC(c1ccccc1)c1ccccc1` (stereo not drawn) [Compound 13c, (1’R,2’R)-Benzhydryl spiro[(2-(4-bromobenzoyl)-5-benzyloxycarbonylcyclopent-4-ene)-1’,6-penicillanate]] showed a melting point of 115.9 to 117.9 °C. In addition, the inhibition at 25 µg/mL in the data set on HIV-1 SG3.1 was determined as 0%. This compound displayed a CC50 in data set [1] of 50.6 µM.

`CC1(C)SC2N(C(=O)C23C(C(=O)OCc2ccccc2)=CCC3C(=O)c2ccc([N+](=O)[O-])cc2)C1C(=O)OC(c1ccccc1)c1ccccc1` (stereo not drawn) [Compound 13d, (1’R,2’R)-Benzhydryl spiro[(2-(4-nitrobenzoyl)-5-benzyloxycarbonylcyclopent-4-ene)-1’,6-penicillanate]] registered a melting point of 122.7 to 124.7 °C. Moreover, in the data set with HIV-1 SG3.1, the inhibition at 25 µg/mL came out at 0%. Besides, half-maximal cytotoxicity in data set [1] (CC50) was put at 73.8 µM.

Compound `CC1(C)SC2N(C(=O)C23C(C(=O)OCc2ccccc2)=CCC3C(=O)c2ccc(C(F)(F)F)cc2)C1C(=O)OC(c1ccccc1)c1ccccc1` (stereo not drawn) [Compound 13e, (1’R,2’R)-Benzhydryl spiro[(2-(4-trifluoromethylbenzoyl)-5-benzyloxycarbonylcyclopent-4-ene)-1’,6-penicillanate]] returned a melting point of 141.1 to 143.1 °C. In addition, in the data set on HIV-1 SG3.1, the inhibition at 25 µg/mL turned out to be 0%. The compound also registered a CC50 in data set [1] of 54.7 µM.

Take `CC1(C)SC2N(C(=O)C23C(C(=O)OCc2ccccc2)=CCC3C(=O)c2cc(F)cc(F)c2)C1C(=O)OC(c1ccccc1)c1ccccc1` (stereo not drawn) [Compound 13f, (1’R,2’R)-Benzhydryl spiro[(2-(3,5-difluorobenzoyl)-5-benzyloxycarbonylcyclopent-4-ene)-1’,6-penicillanate]]: the melting point is 134.8 to 136.8 °C. In the data set on HIV-1 SG3.1, the inhibition at 25 µg/mL worked out at 0%. In data set [1], it took 58.8 µM to reach half-maximal cytotoxicity (CC50).

`CC1(C)SC2N(C(=O)C23C(C(=O)OCc2ccccc2)=CCC3C(=O)c2ccc3ccccc3c2)C1C(=O)OC(c1ccccc1)c1ccccc1` (stereo not drawn) [Compound 13h, (1’R,2’R)-Benzhydryl spiro[(2-naphthoyl-5-benzyloxycarbonylcyclopent-4-ene)-1’,6-penicillanate]] returned a melting point of 90.8 to 92.8 °C. Besides, the inhibition at 25 µg/mL with HIV-1 SG3.1 came to 0%. The 50% cytotoxic concentration (CC50) in data set [1] amounted to 56.2 µM.

The compound `CC1(C)SC2N(C(=O)C23C(C(=O)OCc2ccccc2)=CCC3C(=O)c2ccco2)C1C(=O)OC(c1ccccc1)c1ccccc1` (stereo not drawn) [Compound 13i, (1’R,2’R)-Benzhydryl spiro[(2-furoyl-5-benzyloxycarbonylcyclopent-4-ene)-1’,6-penicillanate]] gave a melting point of 112.8 to 114.8 °C. For the same compound, in the data set on HIV-1 SG3.1, the inhibition at 25 µg/mL came out at 0%. In data set [1], this compound returned a CC50 of 61.2 µM.

Consider `Cc1ccc(COC(=O)C2=CCC3(C(=O)N4C(C(=O)OC(c5ccccc5)c5ccccc5)C(C)(C)SC43)C2C(=O)c2ccc(Cl)cc2)cc1` (stereo not drawn) [Compound 14e, (1’R,2’R)-Benzhydryl spiro[(2-(4-chlorobenzoyl)-3-(4-methylbenzyloxycarbonyl)cyclopent-3-ene)-1’,6-penicillanate]], for which the melting point lay in the range of 79.5 to 81.5 °C. Further, in the data set on HIV-1 SG3.1, the “Therapeutic index (CC50/IC50)” value is given as 474.41, the IC50 was determined as 0.211 µM, the IC90 was determined as 0.72 µM and the inhibition at 25 µg/mL came out at 94%. In data set [1], this compound registered a CC50 of 100 µM.

The compound `CC1(C)SC2N(C(=O)C23CC=C(C(=O)OCC=Cc2ccccc2)C3C(=O)c2ccc(Cl)cc2)C1C(=O)OC(c1ccccc1)c1ccccc1` (stereo not drawn) [Compound 14f, (1’R,2’R)-Benzhydryl spiro[(2-(4-chlorobenzoyl)-3-cinnamyloxycarbonylcyclopent-3-ene)-1’,6-penicillanate]] showed a melting point of 81.7 to 83.7 °C. Besides, in the data set on HIV-1 SG3.1, the “Therapeutic index (CC50/IC50)” value worked out at 1305.67, the 50% inhibitory concentration (IC50) stood at 0.067 µM, the concentration for an effect of 90% (IC90) was determined as 0.198 µM and the inhibition at 25 µg/mL came out at 97%. Also, the CC50 in data set [1] was 87.5 µM.

For the compound `Cc1ccc(COC(=O)C2=CCC3(C(=O)N4C(C(=O)OC(c5ccccc5)c5ccccc5)C(C)(C)SC43)C2C(=O)c2ccc(Br)cc2)cc1` (stereo not drawn) [Compound 14h, (1’R,2’R)-Benzhydryl spiro[(2-(4-bromobenzoyl)-3-(4-methylbenzyloxycarbonyl)cyclopent-3-ene)-1’,6-penicillanate]], the melting point is 74.9 to 76.9 °C. Moreover, in the data set on HIV-1 SG3.1, the “Therapeutic index (CC50/IC50)” value is given as 649.73, the IC50 was determined as 0.111 µM, the IC90 came to 0.297 µM and the inhibition at 25 µg/mL was found to be 93%. This compound also returned a CC50 in data set [1] of 72.1 µM.
